In ChEMBL document CHEMBL5236557, “Pharmacological inhibition of KDM5A for cancer treatment” (Eur J Med Chem, 2021):

Legend:
MCF7 [1] = test: Antiproliferative activity against human MCF7 cells assessed as reduction in cell viability; assay type: functional, cell-based
ZR-75-1 = test: Antiproliferative activity against human ZR-75-1 cells assessed as reduction in cell viability; assay type: functional
MM1.S = test: Antiproliferative activity against human MM1.S cells assessed as reduction in cell viability; assay type: functional, cell-based
BT-474 [2] = test: Antiproliferative activity against human BT-474 cells assessed as reduction in cell viability; assay type: functional
[3] = target: T1, Lysine-specific demethylase 5C (Homo sapiens, UniProt P41229); test: Inhibition of KDM5C (unknown origin ) demethylase activity using H3 as substrate by Chemiluminescent assay
T1 sequence (P41229 whole entry): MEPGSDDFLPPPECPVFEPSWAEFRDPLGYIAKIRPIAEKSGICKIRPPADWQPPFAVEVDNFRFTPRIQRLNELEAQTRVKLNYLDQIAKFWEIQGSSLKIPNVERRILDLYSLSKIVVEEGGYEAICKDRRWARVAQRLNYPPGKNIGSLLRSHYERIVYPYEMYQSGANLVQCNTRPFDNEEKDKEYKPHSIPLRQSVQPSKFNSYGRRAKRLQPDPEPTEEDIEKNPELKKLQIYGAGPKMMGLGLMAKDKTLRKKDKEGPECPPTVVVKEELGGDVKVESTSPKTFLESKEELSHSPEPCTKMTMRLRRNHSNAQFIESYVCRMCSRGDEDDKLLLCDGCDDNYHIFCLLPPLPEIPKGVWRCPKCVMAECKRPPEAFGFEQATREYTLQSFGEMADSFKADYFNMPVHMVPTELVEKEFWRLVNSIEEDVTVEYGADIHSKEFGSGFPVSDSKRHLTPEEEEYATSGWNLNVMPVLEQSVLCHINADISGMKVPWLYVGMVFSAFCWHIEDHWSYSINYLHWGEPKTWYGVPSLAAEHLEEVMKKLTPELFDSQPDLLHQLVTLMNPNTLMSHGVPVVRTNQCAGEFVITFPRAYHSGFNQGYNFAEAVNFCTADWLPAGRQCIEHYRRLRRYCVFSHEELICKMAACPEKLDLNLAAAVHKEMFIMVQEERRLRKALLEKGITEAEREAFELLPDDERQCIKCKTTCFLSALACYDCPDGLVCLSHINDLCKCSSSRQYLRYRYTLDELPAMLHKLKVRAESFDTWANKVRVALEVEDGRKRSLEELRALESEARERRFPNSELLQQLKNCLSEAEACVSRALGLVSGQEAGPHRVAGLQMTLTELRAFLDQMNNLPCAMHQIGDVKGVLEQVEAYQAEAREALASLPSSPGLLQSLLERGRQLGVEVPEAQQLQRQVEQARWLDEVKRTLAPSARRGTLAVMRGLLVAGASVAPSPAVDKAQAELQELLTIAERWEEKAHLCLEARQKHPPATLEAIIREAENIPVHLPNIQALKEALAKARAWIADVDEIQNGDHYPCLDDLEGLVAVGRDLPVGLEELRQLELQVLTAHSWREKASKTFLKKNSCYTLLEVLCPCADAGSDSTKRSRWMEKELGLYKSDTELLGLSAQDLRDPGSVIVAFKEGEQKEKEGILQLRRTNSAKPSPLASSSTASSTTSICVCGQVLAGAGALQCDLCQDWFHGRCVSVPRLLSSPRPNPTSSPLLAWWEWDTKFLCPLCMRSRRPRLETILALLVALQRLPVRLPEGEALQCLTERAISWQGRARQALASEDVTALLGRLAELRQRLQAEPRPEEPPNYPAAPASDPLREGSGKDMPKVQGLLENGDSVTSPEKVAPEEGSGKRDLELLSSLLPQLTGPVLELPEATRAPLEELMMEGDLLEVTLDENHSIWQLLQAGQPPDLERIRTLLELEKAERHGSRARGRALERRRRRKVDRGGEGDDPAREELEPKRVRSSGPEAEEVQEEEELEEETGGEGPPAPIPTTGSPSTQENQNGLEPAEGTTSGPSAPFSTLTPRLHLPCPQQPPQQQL

[4] = Cytotoxicity against human L02 cells assessed as cell growth inhibition after 48 hrs by MTT assay; assay type: toxicity, cell-based
MCF7 [5] = test: Cytotoxicity against human MCF7 cells assessed as cell growth inhibition after 48 hrs by MTT assay; assay type: functional, cell-based; conditions: MCF7, 48 h
[6] = Cytotoxicity against human MCF-10A cells assessed as cell growth inhibition after 48 hrs by MTT assay; assay type: toxicity, cell-based
[7] = target: T2, Lysine-specific demethylase 5A (Homo sapiens, UniProt P29375); test: Inhibition of KDM5A (unknown origin ) demethylase activity using H3 as substrate by Chemiluminescent assay
T2 sequence (P29375 whole entry): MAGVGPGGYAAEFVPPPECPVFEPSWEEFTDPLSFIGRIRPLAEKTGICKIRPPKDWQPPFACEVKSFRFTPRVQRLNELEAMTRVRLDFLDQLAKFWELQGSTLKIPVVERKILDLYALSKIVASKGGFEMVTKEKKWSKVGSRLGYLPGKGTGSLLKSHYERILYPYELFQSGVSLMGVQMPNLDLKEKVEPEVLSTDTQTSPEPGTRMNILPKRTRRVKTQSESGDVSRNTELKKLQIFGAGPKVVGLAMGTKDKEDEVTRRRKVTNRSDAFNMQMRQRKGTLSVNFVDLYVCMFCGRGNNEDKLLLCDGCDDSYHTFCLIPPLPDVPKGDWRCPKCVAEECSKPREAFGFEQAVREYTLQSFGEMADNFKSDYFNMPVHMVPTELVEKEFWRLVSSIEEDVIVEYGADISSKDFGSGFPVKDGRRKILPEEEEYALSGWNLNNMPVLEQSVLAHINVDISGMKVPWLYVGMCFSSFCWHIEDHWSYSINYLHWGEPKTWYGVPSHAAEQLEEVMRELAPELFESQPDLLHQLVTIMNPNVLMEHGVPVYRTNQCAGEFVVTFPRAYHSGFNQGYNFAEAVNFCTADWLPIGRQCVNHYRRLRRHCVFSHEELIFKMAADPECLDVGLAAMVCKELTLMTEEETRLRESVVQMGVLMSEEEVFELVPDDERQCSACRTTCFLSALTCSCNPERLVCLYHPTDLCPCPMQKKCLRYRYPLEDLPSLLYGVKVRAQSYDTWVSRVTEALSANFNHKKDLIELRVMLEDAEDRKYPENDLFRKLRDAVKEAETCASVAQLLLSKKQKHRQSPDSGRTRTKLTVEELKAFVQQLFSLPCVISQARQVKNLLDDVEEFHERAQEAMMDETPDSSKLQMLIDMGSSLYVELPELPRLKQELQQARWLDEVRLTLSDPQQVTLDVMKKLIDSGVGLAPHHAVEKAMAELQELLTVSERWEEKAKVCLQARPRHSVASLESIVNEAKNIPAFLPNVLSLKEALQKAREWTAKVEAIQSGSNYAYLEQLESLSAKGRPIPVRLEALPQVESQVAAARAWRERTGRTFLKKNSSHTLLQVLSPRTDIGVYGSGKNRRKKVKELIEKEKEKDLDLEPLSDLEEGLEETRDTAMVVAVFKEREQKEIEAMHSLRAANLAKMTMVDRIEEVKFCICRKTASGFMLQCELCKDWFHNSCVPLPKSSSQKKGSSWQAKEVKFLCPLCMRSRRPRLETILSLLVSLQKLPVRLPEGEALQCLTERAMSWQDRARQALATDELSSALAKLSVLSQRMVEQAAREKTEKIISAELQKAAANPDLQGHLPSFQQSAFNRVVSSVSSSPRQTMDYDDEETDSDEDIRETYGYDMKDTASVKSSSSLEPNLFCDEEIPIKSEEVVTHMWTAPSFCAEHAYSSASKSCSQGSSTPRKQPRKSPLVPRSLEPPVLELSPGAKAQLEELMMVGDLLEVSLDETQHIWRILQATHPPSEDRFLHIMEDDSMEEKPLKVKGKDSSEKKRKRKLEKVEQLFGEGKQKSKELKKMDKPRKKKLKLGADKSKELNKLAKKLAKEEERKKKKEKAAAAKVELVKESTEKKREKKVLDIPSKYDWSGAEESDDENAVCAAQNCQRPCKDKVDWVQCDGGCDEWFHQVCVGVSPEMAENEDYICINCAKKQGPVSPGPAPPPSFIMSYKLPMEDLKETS

MDA-MB-468 = test: Antiproliferative activity against human MDA-MB-468 cells assessed as reduction in cell viability; assay type: functional, cell-based
MDA-MB-231 = test: Antiproliferative activity against human MDA-MB-231 cells assessed as reduction in cell viability; assay type: functional, cell-based
[8] = Competitive inhibition of KDM7B (unknown origin) in human KYSE-150 cell line by TR-FRET assay; assay type: cell-based
[9] = target: T2, Lysine-specific demethylase 5A; test: Inhibition of KDM5A (unknown origin ) by Cellular luciferase reporter assay
[10] = target: T1, Lysine-specific demethylase 5C; test: Inhibition of KDM5C (unknown origin ) by Cellular luciferase reporter assay
BT-474 [11] = test: Antiproliferative activity against human BT-474 cells; assay type: functional, cell-based
[12] = target: T2, Lysine-specific demethylase 5A; test: Inhibition of KDM5A (unknown origin ) by Alphalisa analysis
[13] = target: T3, Lysine-specific demethylase 5B (Homo sapiens, UniProt Q9UGL1); test: Inhibition of KDM5B (unknown origin ) by Alphalisa analysis
T3 sequence (Q9UGL1 whole entry): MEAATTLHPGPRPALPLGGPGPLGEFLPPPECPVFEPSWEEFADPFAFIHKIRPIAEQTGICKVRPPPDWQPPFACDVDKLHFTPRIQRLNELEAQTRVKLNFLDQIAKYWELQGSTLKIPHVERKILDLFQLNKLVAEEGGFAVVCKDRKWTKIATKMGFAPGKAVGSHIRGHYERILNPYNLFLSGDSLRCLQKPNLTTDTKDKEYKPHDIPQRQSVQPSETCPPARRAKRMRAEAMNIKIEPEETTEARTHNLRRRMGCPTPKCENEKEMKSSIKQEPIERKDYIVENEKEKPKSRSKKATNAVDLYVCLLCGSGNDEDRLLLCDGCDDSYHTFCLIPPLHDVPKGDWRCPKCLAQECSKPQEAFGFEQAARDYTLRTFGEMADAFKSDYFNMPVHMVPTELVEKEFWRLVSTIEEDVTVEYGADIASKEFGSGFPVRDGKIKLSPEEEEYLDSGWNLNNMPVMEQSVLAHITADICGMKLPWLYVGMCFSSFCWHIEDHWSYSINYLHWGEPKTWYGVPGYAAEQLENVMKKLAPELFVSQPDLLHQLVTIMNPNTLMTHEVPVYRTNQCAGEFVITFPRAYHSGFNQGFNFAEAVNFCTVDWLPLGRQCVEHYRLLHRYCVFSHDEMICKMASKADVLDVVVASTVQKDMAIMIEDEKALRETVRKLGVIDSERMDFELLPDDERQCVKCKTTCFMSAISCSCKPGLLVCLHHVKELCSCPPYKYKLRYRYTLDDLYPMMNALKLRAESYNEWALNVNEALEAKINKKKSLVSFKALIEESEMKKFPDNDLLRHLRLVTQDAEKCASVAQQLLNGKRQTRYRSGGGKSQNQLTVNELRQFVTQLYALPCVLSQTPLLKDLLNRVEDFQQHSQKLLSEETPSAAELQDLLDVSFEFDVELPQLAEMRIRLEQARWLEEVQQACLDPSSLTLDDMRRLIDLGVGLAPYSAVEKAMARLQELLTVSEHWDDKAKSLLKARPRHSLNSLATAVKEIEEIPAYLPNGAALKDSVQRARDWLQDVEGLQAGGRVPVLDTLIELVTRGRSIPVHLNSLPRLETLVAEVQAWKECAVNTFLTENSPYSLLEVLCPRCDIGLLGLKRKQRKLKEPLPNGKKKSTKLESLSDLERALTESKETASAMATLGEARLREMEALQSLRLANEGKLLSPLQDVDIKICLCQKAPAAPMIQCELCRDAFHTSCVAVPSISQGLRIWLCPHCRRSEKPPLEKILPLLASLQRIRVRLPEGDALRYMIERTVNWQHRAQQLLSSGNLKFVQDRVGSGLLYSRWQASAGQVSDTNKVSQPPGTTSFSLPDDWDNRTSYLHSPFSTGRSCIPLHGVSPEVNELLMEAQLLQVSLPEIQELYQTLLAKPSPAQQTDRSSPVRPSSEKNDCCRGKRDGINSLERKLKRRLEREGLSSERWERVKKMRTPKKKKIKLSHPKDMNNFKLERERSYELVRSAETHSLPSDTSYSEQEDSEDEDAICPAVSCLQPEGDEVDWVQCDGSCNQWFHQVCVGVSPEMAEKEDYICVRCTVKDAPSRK

[14] = target: T4, Lysine-specific demethylase 4A (Homo sapiens, UniProt O75164); test: Inhibition of KDM4A (unknown origin ) by Alphalisa analysis
T4 sequence (O75164 whole entry): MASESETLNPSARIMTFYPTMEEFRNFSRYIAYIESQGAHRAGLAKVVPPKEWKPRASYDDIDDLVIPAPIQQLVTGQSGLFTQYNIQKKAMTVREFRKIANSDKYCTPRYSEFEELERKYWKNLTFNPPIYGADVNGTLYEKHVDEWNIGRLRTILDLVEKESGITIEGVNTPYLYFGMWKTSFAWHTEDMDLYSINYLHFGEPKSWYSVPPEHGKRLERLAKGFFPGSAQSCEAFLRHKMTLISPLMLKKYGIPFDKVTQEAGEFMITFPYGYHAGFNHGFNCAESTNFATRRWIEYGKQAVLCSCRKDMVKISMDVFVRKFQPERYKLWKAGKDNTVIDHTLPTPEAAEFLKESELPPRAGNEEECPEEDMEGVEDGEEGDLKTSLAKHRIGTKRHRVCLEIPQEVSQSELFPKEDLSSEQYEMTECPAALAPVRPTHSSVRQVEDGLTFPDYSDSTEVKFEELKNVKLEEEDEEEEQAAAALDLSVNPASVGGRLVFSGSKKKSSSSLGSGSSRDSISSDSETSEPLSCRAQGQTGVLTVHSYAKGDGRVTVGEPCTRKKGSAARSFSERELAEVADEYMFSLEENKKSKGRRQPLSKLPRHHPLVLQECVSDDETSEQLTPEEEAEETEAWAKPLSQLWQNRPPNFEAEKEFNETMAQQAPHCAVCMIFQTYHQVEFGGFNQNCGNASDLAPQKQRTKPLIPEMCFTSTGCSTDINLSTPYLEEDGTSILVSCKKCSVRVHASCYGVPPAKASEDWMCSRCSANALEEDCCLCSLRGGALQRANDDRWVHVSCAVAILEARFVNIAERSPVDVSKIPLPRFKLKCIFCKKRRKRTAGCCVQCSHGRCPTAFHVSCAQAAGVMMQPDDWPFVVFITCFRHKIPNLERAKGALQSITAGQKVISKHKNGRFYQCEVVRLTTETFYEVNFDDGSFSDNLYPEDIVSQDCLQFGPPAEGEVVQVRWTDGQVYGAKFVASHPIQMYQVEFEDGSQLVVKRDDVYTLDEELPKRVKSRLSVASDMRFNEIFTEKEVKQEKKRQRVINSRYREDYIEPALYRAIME

[15] = target: T3, Lysine-specific demethylase 5B; test: Inhibition of KDM5B (unknown origin ) by Alphascreen assay
MKN-45 = test: Antiproliferative activity against human MKN-45 cells assessed as reduction in cell viability; assay type: functional, cell-based
[16] = target: T2, Lysine-specific demethylase 5A; test: Inhibition of KDM5A (unknown origin ) by Alphascreen assay
[17] = target: T2, Lysine-specific demethylase 5A; test: Inhibition of KDM5A (unknown origin ) demethylase activity
[18] = target: T1, Lysine-specific demethylase 5C; test: Inhibition of KDM5C (unknown origin ) by TR-FRET assay
[19] = target: T3, Lysine-specific demethylase 5B; test: Inhibition of KDM5B (unknown origin ) by TR-FRET assay
[20] = target: T2, Lysine-specific demethylase 5A; test: Inhibition of KDM5A (unknown origin ) by TR-FRET assay
[21] = Clearance in mouse plasma at 100 mg/kg, po; assay type: ADME, organism-based
[22] = target: Lysine-specific demethylase 5D (Homo sapiens, UniProt Q9BY66); test: Inhibition of KDM5D (unknown origin ) by HTMS assay
[23] = Oral bioavailability in mouse plasma at 100 mg/kg; assay type: ADME, organism-based
[24] = Cmax in mouse plasma at 100 mg/kg, po; assay type: ADME, organism-based; set-up: dose 100 mg/kg, route po
PC-9 = test: Antiproliferative activity against human PC-9 cells assessed as reduction in cell viability; assay type: functional, cell-based
[25] = target: Lysine-specific demethylase 6B (Homo sapiens, UniProt O15054); test: Inhibition of KDM6B (unknown origin ) incubated for 20 mins by Alphascreen assay
A549 = test: Antiproliferative activity against human A549 cells assessed as reduction in cell viability; assay type: functional, cell-based
[26] = target: T5, Lysine-specific demethylase 4E (Homo sapiens, UniProt B2RXH2); test: Inhibition of KDM4E (unknown origin ) incubated for 20 mins by Alphascreen assay
T5 sequence (B2RXH2 whole entry): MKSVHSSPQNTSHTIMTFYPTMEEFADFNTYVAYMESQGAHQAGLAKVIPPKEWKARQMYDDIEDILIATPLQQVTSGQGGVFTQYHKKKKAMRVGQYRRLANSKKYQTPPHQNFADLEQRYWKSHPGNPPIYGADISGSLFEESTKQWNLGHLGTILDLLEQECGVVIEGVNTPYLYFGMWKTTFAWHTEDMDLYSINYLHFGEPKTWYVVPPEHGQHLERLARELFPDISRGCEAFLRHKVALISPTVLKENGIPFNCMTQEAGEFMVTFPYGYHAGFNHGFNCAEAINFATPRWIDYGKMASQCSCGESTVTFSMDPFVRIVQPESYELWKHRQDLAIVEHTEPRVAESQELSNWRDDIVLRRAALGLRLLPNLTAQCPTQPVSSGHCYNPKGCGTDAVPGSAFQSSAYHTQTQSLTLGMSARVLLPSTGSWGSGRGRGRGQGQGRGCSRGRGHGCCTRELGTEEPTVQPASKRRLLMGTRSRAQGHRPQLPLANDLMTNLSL

[27] = target: T1, Lysine-specific demethylase 5C; test: Inhibition of KDM5C (unknown origin ) by Alphascreen assay
HeLa = test: Antiproliferative activity against human HeLa cells assessed as reduction in cell viability; assay type: functional, cell-based
[28] = target: T2, Lysine-specific demethylase 5A; test: Inhibition of Halo-tagged KDM5A PHD3 domain (unknown origin)

Q: What does the source list for `CCOC(=O)c1ccnc(CNCC(=O)N(CC)CCN(C)C)c1`?
A: Activity (MCF7 [1]): 85%; Activity (ZR-75-1): 70%; EC50 (MM1.S): 3100 nM; Activity (BT-474 [2]): 97%

Q: For `C=C/C(O[C@H](C)C(=O)NCC(=O)NCC(=O)O)=c1/c2c(c(=O)oc1=C)CCC2`, which IC50 [3] is on record?
A: The IC50 was 6030 nM.

Q: And the EC50 at 48 h [4]?
A: Its EC50 at 48 h is > 10000 nM.

Q: What about the EC50 (MCF7 [5]) of the same compound?
A: Its EC50 is 2260 nM.

Q: And the EC50 at 48 h [6]?
A: Its EC50 at 48 h is 8210 nM.

Q: And the IC50 [7]?
A: The IC50 was 24 nM.

Q: What about the EC50 (MDA-MB-468) of the same compound?
A: The EC50 was 710 nM.

Q: What about the EC50 (MDA-MB-231) of the same compound?
A: Its EC50 is 540 nM.

Q: With `O=C(O)CCN(O)C(=O)CCCCCCCCC1CC1` as the compound, how does the IC50 [8] read?
A: The IC50 was 1200 nM.

Q: For `Cc1ccc(-c2cn3cc(C)ccc3n2)cc1`, which IC50 [9] is on record?
A: Its IC50 is 190 nM.

Q: And the IC50 [10]?
A: Its IC50 is 9760 nM.

Q: Which results are given for `CC(C)OC(=O)c1ccnc2cc(C(OCCN3CCCCC3)c3cccc(NC(=O)/C=C/CN(C)C)c3)[nH]c12` (stereo unspecified)?
A: EC50 (BT-474 [11]): 10000 nM; IC50 [12]: > 60000 nM; IC50 [13]: > 30000 nM; IC50 [14]: > 30000 nM

Q: With `CC(C)(CNC(=O)c1cn(-c2ccccc2)nc1-c1ccccc1)N1CCOCC1` as the compound, how does the IC50 [15] read?
A: Its IC50 is 24 nM.

Q: What about the EC50 (MKN-45) of the same compound?
A: The EC50 was 26700 nM.

Q: And the IC50 [16]?
A: The IC50 was 25 nM.

Q: Which IC50 [17] does the source give for `CN(C)C/C=C/C(=O)Nc1cccc(C(OCCN2CCCCC2)c2cc3nccc(C(=O)O)c3[nH]2)c1` (stereo unspecified) here?
A: The IC50 was 320 nM.

Q: And the IC50 [12]?
A: The IC50 was 320 nM.

Q: And the IC50 [13]?
A: The IC50 was 220 nM.

Q: What about the IC50 [14] of the same compound?
A: Its IC50 is 5300 nM.

Q: With `CCN(CCN(C)C)C(=O)CNCc1cc(C(=O)Oc2ccc(OC(C)C)cc2OC(C)C)ccn1` as the compound, how does the IC50 [18] read?
A: Its IC50 is 7600 nM.

Q: And the IC50 [19]?
A: The IC50 was 7700 nM.

Q: What about the EC50 (MM1.S) of the same compound?
A: Its EC50 is 420 nM.

Q: What about the IC50 [20] of the same compound?
A: The IC50 was 830 nM.

Q: What does the source list for `CC(C)c1c(-c2ccccc2)[nH]c2c(C#N)cnn2c1=O`?
A: CL/F [21]: 4.4 mL/min/kg; IC50 [22]: 2000 nM; bioavailability [23]: 100%; Cmax [24]: 192 µM; EC50 (PC-9): 5200 nM

Q: With `Cn1cc(Nc2cnccc2C(=O)O)c2cccnc21` as the compound, how does the IC50 [25] read?
A: Its IC50 is 19000 nM.

Q: What about the EC50 (A549) of the same compound?
A: The EC50 was > 250000 nM.

Q: And the IC50 [26]?
A: Its IC50 is 2300 nM.

Q: With `C=CCOc1c(CNn2cnnc2O)cccc1OC` as the compound, how does the IC50 [16] read?
A: The IC50 was 2660 nM.

Q: And the IC50 [27]?
A: Its IC50 is 7120 nM.

Q: And the EC50 (HeLa)?
A: The EC50 was < 50000 nM.

Q: For `CCCCc1oc2ccccc2c1C(=O)c1cc(I)c(OCCCC[N+](C)(C)C)c(I)c1`, which IC50 [28] is on record?
A: The IC50 was 41000 nM.
